# Several values for one entry are separate records, joined by “and”; a condition that tells them apart may be missing. Equal entries are not always repeated. After the bases stand the sugars from the 5' end (letter, count) and the backbone: PS all phosphorothioate, else s phosphorothioate and o phosphodiester by linkage. Methylation of C is not given here. e = 2'-O-(2-methoxyethyl) (MOE); k = constrained ethyl (cEt); d = 2'-deoxy (DNA)
# Target: SOD1
# Conditions: ASO
Sequence,"target mRNA inhibition (HepG2, 3 µM) [%]","target mRNA inhibition (HepG2, 5 µM)",also measured
"CGCTGCAGGAGACTACG (sugars e3 k2 d7 k2 e3, PS)",0,,
"AATGATGCAATGGTCTCCTG (sugars e5 d10 e5, PS)",,0%,
"GCCATACAGGGTTTTTA (sugars e2 k2 d9 k2 e2, PS)",,26%,
"GGCGATCCCAATTACAC (sugars e2 k2 d8 k2 e3, PS)",,,"target mRNA inhibition (HepG2, 4 µM): 33%"
"ACAGGCTTGAATGACAAAGA (sugars e5 d10 e5, PS)",,19%,
"ACAGGTACTTTAAAGCA (sugars e2 k2 d8 k2 e3, PS)",,14%,
"ATCAGTTTCTCACTACA (sugars e2 k2 d8 k2 e3, PS)",,31%,
"GTGAGGACCTGCACTGG (sugars e3 k2 d7 k2 e3, PS)",21,,
"GCCGTCGCCCTTCAGCA (sugars e3 k2 d7 k2 e3, PS)",33,,
"GCTTCCCCACACCTTCACTG (sugars e5 d10 e5, linkages s1 o3 s11 o3 s1)",,,"target mRNA inhibition (A431, 0.12 µM): 0%; target mRNA inhibition (A431, 0.6 µM): 0%; target mRNA inhibition (A431, 3 µM): 11%; target mRNA inhibition (A431, 15 µM): 0%; target mRNA inhibition (HepG2, 0.222 µM): 14%; target mRNA inhibition (HepG2, 0.667 µM): 32%; target mRNA inhibition (HepG2, 2 µM): 79%; target mRNA inhibition (HepG2, 6 µM): 55%"
"CAATTACACCACAAGCC (sugars e2 k2 d9 k2 e2, PS)",,,"target mRNA inhibition (HepG2, 4 µM): 61%"
"CAAGCCAAACGACTTCCAGC (sugars e5 d10 e5, PS)",59,54%,"target mRNA inhibition (HepG2, 0.1875 µM): 9%; target mRNA inhibition (HepG2, 0.75 µM): 27%; target mRNA inhibition (HepG2, 12 µM): 89%"
"GGATTAAAGTGAGGACC (sugars e3 k2 d7 k2 e3, PS)",30,,
"AAATCTTCCAAGTGATC (sugars e2 k2 d8 k2 e3, PS)",,46%,
"CTCAGACTACATCCAAG (sugars e2 k2 d8 k2 e3, PS)",87,,"target mRNA inhibition (HepG2, 0.1875 µM): 38%; target mRNA inhibition (HepG2, 0.75 µM): 65%; target mRNA inhibition (HepG2, 4 µM): 85% and 83%; target mRNA inhibition (HepG2, 12 µM): 90% and 96%"
"CAGAATCTTCAATAGACACA (sugars e5 d10 e5, PS)",,17% and 0%,
"TGATGCAATGGTCTCCTGAG (sugars e5 d10 e5, PS)",,1%,
"TGGCAAAATACAGGTCA (sugars e3 k2 d7 k2 e3, PS)",26,,
"TGCCCTGCACTGGGCCGTCG (sugars e5 d10 e5, PS)",,,"target mRNA inhibition (HepG2, 4 µM): 38%"
"ATTACTTTCCTTCTGCT (sugars e3 k2 d7 k2 e3, PS)",15,,
"CCATGCAGGCCTTCAGT (sugars e3 k2 d7 k2 e3, PS)",21,,
"CAGGCCTTCAGTCAGTCCTT (sugars e5 d10 e5, PS)",,56% and 51%,

# — the OligoGym collection
